Key:
Format in all cases: biochemical
[1] = target: NRAS G12C (Homo sapiens (Human), UniProt P01111+P62937, G12C); assay: Ras-Raf (BRAF RBD) disruption / FRET / MOA assay, NRAS G12C; conditions: read-out: IC50* NRAS G12C FRET data
Method in brief: (§1)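 Ternary complex formation (Ras–compound–cyclophilin A) displacing BRAF RBD, monitored by TR-FRET. Three hours at 25° C with compound (top 30 μM final), then 1.5 h with the labelled antibodies. Lower ratio than DMSO indicates disruption; IC50 reported.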

[2] = target: K-Ras G13C (Homo sapiens (Human), UniProt P01116+P62937, G13C); assay: Ras-Raf (BRAF RBD) disruption / FRET / MOA assay, KRAS G13C; conditions: KRAS G13C; Ras-Raf disruption/FRET/MOA assay; read-out: IC50* KRAS G13C FRET data
Method in brief: as §1

[3] = target: KRAS G13D (Homo sapiens (Human), UniProt P01116+P62937, G13D); assay: Ras-Raf (BRAF RBD) disruption / FRET / MOA assay, KRAS G13D; conditions: read-out: IC50* KRAS G13D FRET data
Method in brief: as §1

[4] = target: KRAS WT (Homo sapiens (Human), UniProt P01116+P62937); assay: Ras-Raf (BRAF RBD) disruption / FRET / MOA assay, KRAS WT; conditions: read-out: IC50* KRAS WT FRET data
Method in brief: as §1

[5] = target: KRAS G12S (Homo sapiens (Human), UniProt P01116+P62937, G12S); assay: Ras-Raf (BRAF RBD) disruption / FRET / MOA assay, KRAS G12S; conditions: Ras-Raf disruption/FRET/MOA assay; class symbols; read-out: KRAS G12S FRET data IC50
Method in brief: as §1

[6] = target: K-Ras G12C (Homo sapiens (Human), UniProt P01116+P62937, G12C); assay: Ras-Raf (BRAF RBD) disruption / FRET / MOA assay, KRAS G12C; conditions: KRAS G12C; Ras-Raf disruption/FRET/MOA assay; read-out: IC50* KRAS G12C FRET data
Method in brief: as §1

[7] = target: NRAS Q61R (Homo sapiens (Human), UniProt P01111+P62937, Q61R); assay: Ras-Raf (BRAF RBD) disruption / FRET / MOA assay, NRAS Q61R; conditions: NRAS Q61R; Ras-Raf disruption/FRET/MOA assay; read-out: IC50* NRAS Q61R FRET data
Method in brief: (§2)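 Compounds were tested as a 10-point 3-fold dilution series from 30 μM final for their ability to drive ternary complex formation between nucleotide-loaded Ras and cyclophilin A, displacing the BRAF RBD. After 3 h at 25° C., anti-His Eu-W1024 (10 nM) and anti-GST allophycocyanin (50 nM) were added for 1.5 h. A TR-FRET ratio decrease versus DMSO gave IC50.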

[8] = target: KRAS G12V (Homo sapiens (Human), UniProt P01116+P62937, G12V); assay: Ras-Raf (BRAF RBD) disruption / FRET / MOA assay, KRAS G12V; conditions: read-out: IC50* KRAS G12V FRET data
Method in brief: as §1

[9] = target: NRAS Q61K (Homo sapiens (Human), UniProt P01111+P62937, Q61K); assay: Ras-Raf (BRAF RBD) disruption / FRET / MOA assay, NRAS Q61K; conditions: NRAS Q61K; Ras-Raf disruption/FRET/MOA assay; read-out: IC50* NRAS Q61K FRET data
Method in brief: as §2

[10] = target: NRAS WT (Homo sapiens (Human), UniProt P01111+P62937); assay: Ras-Raf (BRAF RBD) disruption / FRET / MOA assay, NRAS WT; conditions: read-out: IC50* NRAS WT FRET data
Method in brief: as §2

Sequence of K-Ras G12C (P01116-2 other isoform, or with tags, fused parts or gaps G12C): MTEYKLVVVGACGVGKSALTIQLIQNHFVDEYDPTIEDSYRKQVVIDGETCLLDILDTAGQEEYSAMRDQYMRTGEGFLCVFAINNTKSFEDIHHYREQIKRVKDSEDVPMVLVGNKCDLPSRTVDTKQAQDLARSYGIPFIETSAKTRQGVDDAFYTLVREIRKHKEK
Sequence of K-Ras G12C (P62937 whole entry): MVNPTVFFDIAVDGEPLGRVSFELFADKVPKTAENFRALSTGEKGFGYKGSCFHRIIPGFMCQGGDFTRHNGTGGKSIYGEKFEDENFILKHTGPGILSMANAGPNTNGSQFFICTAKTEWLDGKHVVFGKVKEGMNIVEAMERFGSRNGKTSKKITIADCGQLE
Sequence of NRAS G12C (P01111 whole entry G12C): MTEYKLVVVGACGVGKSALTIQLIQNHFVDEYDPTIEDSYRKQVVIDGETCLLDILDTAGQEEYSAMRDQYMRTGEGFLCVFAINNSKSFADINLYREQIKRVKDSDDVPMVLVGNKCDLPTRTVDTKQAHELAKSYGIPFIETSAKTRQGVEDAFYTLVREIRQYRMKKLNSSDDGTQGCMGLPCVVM
Sequence of NRAS G12C (P62937 whole entry): as the sequence (P62937 whole entry) above
Sequence of K-Ras G13C (P01116-2 other isoform, or with tags, fused parts or gaps G13C): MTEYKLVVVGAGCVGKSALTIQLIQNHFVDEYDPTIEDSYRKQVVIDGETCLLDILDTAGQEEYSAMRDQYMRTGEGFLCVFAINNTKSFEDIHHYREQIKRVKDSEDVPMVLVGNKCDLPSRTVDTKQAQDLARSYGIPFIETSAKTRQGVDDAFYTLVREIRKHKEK
Sequence of K-Ras G13C (P62937 whole entry): as the sequence (P62937 whole entry) above
Sequence of KRAS WT (P01116-2 other isoform, or with tags, fused parts or gaps): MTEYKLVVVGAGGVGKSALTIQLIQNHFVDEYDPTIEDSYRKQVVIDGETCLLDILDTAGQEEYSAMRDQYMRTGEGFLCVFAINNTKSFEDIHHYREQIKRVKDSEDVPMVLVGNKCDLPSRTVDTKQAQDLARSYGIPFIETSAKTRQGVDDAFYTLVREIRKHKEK
Sequence of KRAS WT (P62937 whole entry): as the sequence (P62937 whole entry) above
Sequence of KRAS G12S (P01116-2 other isoform, or with tags, fused parts or gaps G12S): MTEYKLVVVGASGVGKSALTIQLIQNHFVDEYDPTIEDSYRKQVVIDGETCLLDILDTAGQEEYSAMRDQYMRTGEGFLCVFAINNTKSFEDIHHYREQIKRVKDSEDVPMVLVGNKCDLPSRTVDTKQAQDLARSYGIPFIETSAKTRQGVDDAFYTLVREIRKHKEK
Sequence of KRAS G12S (P62937 whole entry): as the sequence (P62937 whole entry) above
Sequence of KRAS G13D (P01116-2 other isoform, or with tags, fused parts or gaps G13D): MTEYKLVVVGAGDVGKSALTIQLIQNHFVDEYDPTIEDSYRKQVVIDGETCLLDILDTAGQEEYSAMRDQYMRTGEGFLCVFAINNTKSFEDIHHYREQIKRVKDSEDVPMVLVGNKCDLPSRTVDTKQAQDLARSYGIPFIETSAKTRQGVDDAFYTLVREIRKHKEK
Sequence of KRAS G13D (P62937 whole entry): as the sequence (P62937 whole entry) above
Sequence of NRAS Q61R (P01111 whole entry Q61R): as the sequence (P01111 whole entry G12C) above, with C12G, Q61R counted along it
Sequence of NRAS Q61R (P62937 whole entry): as the sequence (P62937 whole entry) above
Sequence of NRAS Q61K (P01111 whole entry Q61K): as the sequence (P01111 whole entry G12C) above, with C12G, Q61K counted along it
Sequence of NRAS Q61K (P62937 whole entry): as the sequence (P62937 whole entry) above
Sequence of NRAS WT (P01111 whole entry): as the sequence (P01111 whole entry G12C) above, with C12G counted along it
Sequence of NRAS WT (P62937 whole entry): as the sequence (P62937 whole entry) above
Sequence of KRAS G12V (P01116-2 other isoform, or with tags, fused parts or gaps G12V): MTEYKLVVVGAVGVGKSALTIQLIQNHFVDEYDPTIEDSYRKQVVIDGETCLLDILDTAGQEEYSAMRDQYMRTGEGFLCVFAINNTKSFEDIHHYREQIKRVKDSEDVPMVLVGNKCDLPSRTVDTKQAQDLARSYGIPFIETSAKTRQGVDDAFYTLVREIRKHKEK
Sequence of KRAS G12V (P62937 whole entry): as the sequence (P62937 whole entry) above

Structure (SMILES)	IC50 [1]	IC50 [2]	IC50 [3]	IC50 [4]	IC50 [5]	IC50 [6]	IC50 [7]	IC50 [8]	IC50 [9]	IC50 [10]
CCn1c(-c2cccnc2[C@H](C)OC)c2c3cc(ccc31)N1CCO[C@@H](C[C@H](NC(=O)[C@@H](COC3CCN(C(=O)C#CC(C)(C)N(C)C)CC3)C(C)C)C(=O)N3CCC[C@H](N3)C(=O)OCC(C)(C)C2)C1 (atropisomer, axis not shown) [Example A643, (2R)-2-(((1-(4-(dimethylamino)-4-methylpent-2-ynoyl)piperidin-4-yl)oxy)methyl)-N-((2^2S,6^3S,4S)-1^1-ethyl-1^2-(2-((S)-1-methoxyethyl)pyridin-3-yl)-10,10-dimethyl-5,7-dioxo-6^1,6^2,6^3,6^4,6^5,6^6-hexahydro-1^1H-8-oxa-2(4,2)-morpholina-1(5,3)-indola-6(1,3)-pyridazinacycloundecaphane-4-yl)-3-methylbutanamide]	0.01 to 0.1 µM	1 to 10 µM	> 10 µM	> 10 µM	> 10 µM	0.01 to 0.1 µM	> 10 µM	> 10 µM	> 10 µM	> 10 µM
CCn1c(-c2cccnc2[C@H](C)OC)c2c3cc(ccc31)-c1cccc(c1)C[C@H](NC(=O)[C@@H](COC1CN(C(=O)C#C[C@H]3COCCN3C)C1)C(C)C)C(=O)N1CCC[C@H](N1)C(=O)OCC(C)(C)C2 (atropisomer, axis not shown) [Example A644]	0.01 to 0.1 µM	1 to 10 µM	> 10 µM	> 10 µM	> 10 µM	0.01 to 0.1 µM	> 10 µM	> 10 µM	> 10 µM	> 10 µM
CCn1c(-c2cccnc2[C@H](C)OC)c2c3cc(ccc31)-c1cccc(c1)C[C@H](NC(=O)[C@@H](COC1CN(C(=O)C#C[C@@H]3OCCCN3C)C1)C(C)C)C(=O)N1CCC[C@H](N1)C(=O)OCC(C)(C)C2 (atropisomer, axis not shown) [Example A648]	0.1 to 1 µM	1 to 10 µM	> 10 µM	1 to 10 µM	> 10 µM	0.1 to 1 µM	> 10 µM	> 10 µM	> 10 µM	1 to 10 µM
CCn1c(-c2cccnc2[C@H](C)OC)c2c3cc(ccc31)-c1cnc(o1)C[C@H](NC(=O)[C@@H](COC1CN(C(=O)C#CC(C)(C)N(C)C)C1)C(C)C)C(=O)N1CCC[C@H](N1)C(=O)OCC(C)(C)C2 (atropisomer, axis not shown) [Example A649]	0.01 to 0.1 µM	> 10 µM	> 10 µM	> 10 µM	> 10 µM	0.01 to 0.1 µM	> 10 µM	> 10 µM	> 10 µM	> 10 µM
CCn1c(-c2cccnc2[C@H](C)OC)c2c3cc(ccc31)-c1csc(n1)C[C@H](NC(=O)[C@H](C(C)C)N(C)C(=O)N1CCC3(CC1)CN(C(=O)/C=C/CN(C)C)C3)C(=O)N1CCC[C@H](N1)C(=O)OCC(C)(C)C2 (atropisomer, axis not shown) [Example A650]	0.01 to 0.1 µM	0.01 to 0.1 µM	0.1 to 1 µM	0.1 to 1 µM	0.1 to 1 µM	0.01 to 0.1 µM	0.1 to 1 µM	0.1 to 1 µM	0.01 to 0.1 µM	0.1 to 1 µM
CCn1c(-c2cccnc2[C@H](C)OC)c2c3cc(ccc31)-c1csc(n1)C[C@H](NC(=O)[C@H](C(C)C)N(C)C(=O)N1CCC13CN(C(=O)C#CC(C)(C)N(C)C)C3)C(=O)N1CCC[C@H](N1)C(=O)OCC(C)(C)C2 (atropisomer, axis not shown) [Example A656]	0.1 to 1 µM	1 to 10 µM	1 to 10 µM	0.1 to 1 µM	0.1 to 1 µM	0.1 to 1 µM	0.1 to 1 µM	1 to 10 µM	0.1 to 1 µM	0.1 to 1 µM
CO[C@@H](C)c1ncccc1-c1c2c3cc(ccc3n1CC(F)(F)F)-c1csc(n1)C[C@H](NC(=O)[C@H](C(C)C)N(C)C(=O)N1CCN(C(=O)/C=C/CN(C)C)C3(CC3)C1)C(=O)N1CCC[C@H](N1)C(=O)OCC(C)(C)C2 (atropisomer, axis not shown) [Example A664]	0.01 to 0.1 µM	0.01 to 0.1 µM	0.01 to 0.1 µM	0.01 to 0.1 µM	0.01 to 0.1 µM	0.01 to 0.1 µM	0.01 to 0.1 µM	0.1 to 1 µM	0.01 to 0.1 µM	0.01 to 0.1 µM
C=CC(=O)N1CC(N2CCN(C(=O)N(C)[C@H](C(=O)N[C@H]3Cc4nc(cs4)-c4ccc5c(c4)c(c(-c4cccnc4[C@H](C)OC)n5CC)CC(C)(C)COC(=O)[C@@H]4CCCN(N4)C3=O)C(C)C)CC2)C1 (atropisomer, axis not shown) [Example A668]	0.01 to 0.1 µM	0.01 to 0.1 µM	1 to 10 µM	0.1 to 1 µM	0.1 to 1 µM	0.01 to 0.1 µM	0.1 to 1 µM	0.1 to 1 µM	0.01 to 0.1 µM	0.1 to 1 µM
CO[C@@H](C)c1ncccc1-c1c2c3cc(ccc3n1CC(F)(F)F)-c1nc(co1)C[C@H](NC(=O)[C@@H](COC1CN(C(=O)C#CC(C)(C)N(C)C)C1)C(C)C)C(=O)N1CCC[C@H](N1)C(=O)OCC(C)(C)C2 (atropisomer, axis not shown) [Example A674]	0.01 to 0.1 µM	1 to 10 µM	> 10 µM	> 10 µM	> 10 µM	0.01 to 0.1 µM	> 10 µM	> 10 µM	> 10 µM	> 10 µM
C=CC(=O)N1CC[C@@]2(COCCN2C(=O)N(C)[C@H](C(=O)N[C@H]2Cc3nc(cs3)-c3ccc4c(c3)c(c(-c3cccnc3[C@H](C)OC)n4CC)CC(C)(C)COC(=O)[C@@H]3CCCN(N3)C2=O)C(C)C)C1 (atropisomer, axis not shown) [Example A677]	0.1 to 1 µM	1 to 10 µM	1 to 10 µM	0.1 to 1 µM	0.1 to 1 µM	0.1 to 1 µM	0.1 to 1 µM	1 to 10 µM	0.1 to 1 µM	0.1 to 1 µM
C=CC(=O)N1CCC2(CC1)CCN2C(=O)N(C)[C@H](C(=O)N[C@H]1Cc2nc(cs2)-c2ccc3c(c2)c(c(-c2cccnc2[C@H](C)OC)n3CC)CC(C)(C)COC(=O)[C@@H]2CCCN(N2)C1=O)C(C)C (atropisomer, axis not shown) [Example A678]	0.01 to 0.1 µM	0.1 to 1 µM	0.1 to 1 µM	0.1 to 1 µM	0.1 to 1 µM	0.01 to 0.1 µM	0.01 to 0.1 µM	0.1 to 1 µM	0.01 to 0.1 µM	0.1 to 1 µM
